# From patent US4314028A, “Fermentation process for producing tallysomycin compounds” (priority 1980, dated 1982)
# What was measured:
# [1] = tested on: Aspergillus fumigatus IAM 2593; assay: MIC, two-fold agar dilution method; assay type: cell-based; conditions: Sabouraud agar
# Procedure, shortened: (§1)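 Two-fold agar dilution; nutrient agar for bacteria, Sabouraud agar for A. fumigatus. MIC = lowest inhibitory concentration.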
# [2] = tested on: Bacillus subtilis PCI 219; assay: MIC, two-fold agar dilution method; assay type: cell-based; conditions: nutrient agar
# Procedure, shortened: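 For each organism, growth was scored on agar plates carrying doubling concentrations of compound. Bacteria, both gram-positive and acid-fast, grew on nutrient agar, and A. fumigatus grew on Sabouraud agar.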
# [3] = tested on: Candida albicans IAM 4888; assay: MIC, two-fold agar dilution method; assay type: cell-based; conditions: Sabouraud agar
# Procedure, shortened: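 Agar dilution (2-fold series) on nutrient agar (bacteria) or Sabouraud agar (fungi).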
# Escherichia coli NIHJ = assay: MIC, two-fold agar dilution method; assay type: cell-based; conditions: nutrient agar
# Procedure, shortened: (§2)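 Compounds are diluted two-fold through agar plates: Sabouraud medium for the fungus, nutrient medium for the bacterial strains, including the acid-fast Mycobacterium 607. Organisms are then applied and the minimum inhibitory concentration is recorded.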
# Mycobacterium 607 = assay: MIC, two-fold agar dilution method; assay type: cell-based; conditions: nutrient agar
# Procedure, shortened: as §1
# Proteus mirabilis A9554 = assay: MIC, two-fold agar dilution method; assay type: cell-based; conditions: nutrient agar
# Procedure, shortened: as §2
# Sarcina lutea PCI1001 = assay: MIC, two-fold agar dilution method; assay type: cell-based; conditions: nutrient agar
# Procedure, shortened: as §1
# [4] = tested on: Staphylococcus aureus Smith; assay: MIC, two-fold agar dilution method; assay type: cell-based; conditions: nutrient agar
# Procedure, shortened: as §1
# [5] = tested on: Mycobacterium smegmatis strain M6-3; assay: Relative antibacterial potency, paper-disc agar diffusion method; assay type: cell-based; conditions: relative to tallysomycin A standard=1000 mcg/mg
# Description: The relative antibacterial potencies (tallysomycin A standard=1000 mcg/mg) of the tallysomycin derivatives were determined by the paper-disc agar diffusion method using Mycobacterium smegmatis strain M6-3 as the assay organism.
# [6] = tested on: lysogenic bacterium E. coli W1709 (λ); assay: Prophage induction of lysogenic bacterium (ILB activity); assay type: cell-based; conditions: t/c ratio of plaque counts greater than 3.0
# Procedure, shortened: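 Plaques counted on agar plates containing test compound and on control plates, following Lein et al. A test/control plaque ratio above 3.0 counted as significant. Value given as the minimum inducible concentration.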
# Sarcoma 180 = assay: animal or person; assay type: in vivo, dd-strain mice; conditions: copper-chelated form unless otherwise stated; for Antitumor activity S180 (ED150): ip, once daily 9 days, effective dose 150, survival; for Antitumor therapeutic index S180: single dose LD50/ED150
# Procedure, shortened: (§3)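 P388 (3×10^5 cells) and Lewis lung (5×10^5) i.p. in BDF1 mice, B16 (5×10^5) s.c. in BDF1, Sarcoma 180 ([…]) i.p. in male dd mice. ED125 (Sarcoma 180 ED150) from median-survival T/C, 45 days; B16 ID50 from day-16 tumor size.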
# Melanotic melanoma B16 = assay: Antitumor activity in mice, melanotic melanoma B16; assay type: in vivo, BDF1 mice; conditions: copper-chelated form unless otherwise stated; for Antitumor activity B16 (ID50): ip, once daily 9 days, 50% inhibition of tumor growth, day 16, 23040 min; for Antitumor therapeutic index B16: single dose LD50/ID50
# Procedure, shortened: as §3
# [7] = Acute toxicity, single dose LD50; assay type: in vivo, dd mice; conditions: ip, 30 days observation, copper-chelated form unless otherwise stated
# Description: (§4) Graded doses of test compounds were administered intraperitoneally to groups of dd mice. The injection was given one time only or once daily for 9 consecutive days. Death or survival of the animals was recorded for 30 days after the last dose of test compound to calculate the single or multiple median lethal dose (LD50).
# [8] = Nephrotoxicity in a mouse model utilizing BUN measurement; assay type: in vivo; conditions: compared with bleomycin at equitoxic doses
# malignant tumors = assay: Initial studies using experimental animals: antitumor activity; assay type: in vivo; conditions: broad spectrum of malignant tumors; copper-free and copper-chelated forms
# [9] = in vivo
# [10] = in vivo; remark: listed apart in the source
# [11] = tested on: Lymphocytic leukemia P388; assay: animal or person; assay type: in vivo, BDF1 mice; conditions: copper-chelated form unless otherwise stated
# Procedure, shortened: as §3
# Lewis lung carcinoma = assay: Antitumor activity in mice, Lewis lung carcinoma; assay type: in vivo, BDF1 mice; conditions: copper-chelated form unless otherwise stated
# Procedure, shortened: as §3
# [12] = Subacute toxicity, multiple dose LD50; assay type: in vivo, dd mice; conditions: ip, once daily 9 days, 30 days observation; copper-chelated form unless otherwise stated
# Description: as §4
SMILES,minimum inhibitory concentration (MIC) [1],minimum inhibitory concentration (MIC) [2],minimum inhibitory concentration (MIC) [3],minimum inhibitory concentration (MIC) (Escherichia coli NIHJ),minimum inhibitory concentration (MIC) (Mycobacterium 607),minimum inhibitory concentration (MIC) (Proteus mirabilis A9554),minimum inhibitory concentration (MIC) (Sarcina lutea PCI1001),minimum inhibitory concentration (MIC) [4],Antibacterial potency [5],ILB activity (minimum inducible concentration) [6],Antitumor activity S180 (ED150) (Sarcoma 180),Antitumor therapeutic index S180 (Sarcoma 180),Antitumor activity B16 (ID50) (Melanotic melanoma B16),Antitumor therapeutic index B16 (Melanotic melanoma B16),LD50 single dose [7],other results
Cc1c(N)nc([C@H](CC(N)=O)NC[C@H](N)C(N)=O)nc1C(=O)N[C@H](C(=O)N[C@H](C)[C@@H](O)CC(=O)N[C@H](C(=O)NC(O[C@@H]1O[C@@H](C)[C@@H](N)[C@@H](O)[C@H]1O)C(O)c1nc(-c2nc(C(=O)NCCCCN)cs2)cs1)[C@@H](C)O)[C@@H](O[C@@H]1O[C@@H](CO)[C@@H](O)[C@H](O)[C@@H]1O[C@H]1O[C@H](CO)[C@@H](O)[C@H](OC(N)=O)[C@@H]1O)c1cnc[nH]1 (some centres unmarked) [Tallysomycin S10b],6.3,0.2,12.5,0.8,0.2,3.1,3.1,6.3,"1,100 μ/mg",0.31 µg/mL,0.03 mg/kg/day,900,0.59 mg/kg/day,46,27 mg/kg/day,"toxicity to the kidney (BUN) [8]: no greater than that of bleomycin at equitoxic doses; antitumor activity (malignant tumors): excellent antitumor activity against a broad spectrum of malignant tumors; dose response slope, lung hydroxyproline [9]: flatter than that observed with bleomycin; hydroxyproline content at high doses [9]: reduced compared to that of animals treated with bleomycin at equitoxic doses; lung hydroxyproline [9]: caused an increase in lung hydroxyproline suggesting pulmonary toxicity; undesirable side effects (e.g. nephrotoxicity) [10]: less undesirable side effects (e.g. nephrotoxicity) than the naturally-occurring tallysomycin A and B"
Cc1c(N)nc(C(CC(N)=O)NCC(N)C(N)=O)nc1C(=O)NC(C(=O)NC(C)C(O)CC(=O)NC(C(=O)NC(OC1OC(C)C(N)C(O)C1O)C(O)c1nc(-c2nc(C(=O)NCCNCC(C)O)cs2)cs1)C(C)O)C(OC1OC(CO)C(O)C(O)C1OC1OC(CO)C(O)C(OC(N)=O)C1O)c1c[nH]cn1 (centres unmarked) [Tallysomycin S5b],0.4,0.025,25,0.4,0.2,3.1,12.5,6.3,500 μ/mg,0.08 µg/mL,0.10 mg/kg/day,460,0.31 mg/kg/day,148,46 mg/kg/day,"Antitumor activity P388 (ED125) ([11]; ip, once daily 9 days, dose giving T/C survival of 125%): 0.66 mg/kg/day; Antitumor therapeutic index P388 ([11]; single dose LD50/ED125): 70; Antitumor activity Lewis lung (ED125) (Lewis lung carcinoma; ip, once daily 11 days, dose giving T/C survival of 125%): 0.38 mg/kg/day; Antitumor therapeutic index Lewis Lung (Lewis lung carcinoma; single dose LD50/ED125): 121; LD50 multiple dose (qd 1 → 9) [12]: 4.0 mg/kg/day"
